In patent US9090594B2, “PIM kinase inhibitors and preparation methods and use in medicinal manufacture thereof” (JIKAI BIOSCIENCES, INC., priority 2011, dated 2015):

Molecular target: T1, PIM-1 (Homo sapiens, UniProt P11309)
T1 construct: purchased Millipore Corporation 14-573
Assay: PIM Kinase Activity Assay-IMAP Fluorescence Polarization Assay (PIM-1)
Assay type: biochemical
Settings: 3 μM concentration
Method: In the present invention, the PIM activities of the compounds were tested by BioDuro (Building E, No. 29 Life Science Park Road, Changping District, Beijing, 102206, P.R. China). The method used for testing is PIM Kinase Activity Assay-IMAP Fluorescence Polarization Assay
PIM Kinase Activity Assay-IMAP Fluorescence Polarization Assay
PIM Is a serine/threonine protein kinase, they can phosphorylate 5-FAM labeled small peptide substrates. Fluorescence polarization is less for non-phosphorylated substrates since that can not bind to the binder (metal binding nanoparticles). On the other hand, fluorescence polarization is more for phosphorylated substrates since that can bind to the binder. The level of 5-FAM labeled small peptide substrates phosphorylation reflects the activities of PIM kinase. By measuring their ability of inhibiting PIM kinase of the compounds of the present invention, their activities of inhibiting PIM kinases can be determined.
EnVision (PerkinElmer, Waltham, Mass.)
PIM1 (Millipore Cat. #14-573) (Millipore Corporation, Billerica, Mass.)
5-FAM labeled peptide (5-FAM-RSRHSSYPAGT, AnaSpec Cat.#63801) (AnaSpec Inc., Fremont, Calif.)
IMAP FP Screening Express kit (IMAP FP Screening kit) (Molecular Devices Cat.# R8127) (Molecular Devices, Sunnyvale, Calif.)
a) 10 mM compound stock solution is diluted to appropriate concentration with 100% DMSO, then diluted 10 fold to targeted concentration with test butter to keep DMSO concentration at 10%
1 ul of compound solution and 4 ul of enzyme (PIM-1final concentration 0.025 nM, PIM-2 concentration 3 nM) is incubated at 23° C. for 15 min, 2.5 ul ATP (for PIM-1 and PIM-2, the final ATP concentrations are 30 uM and 5 uM respectively) 2.5 ul 5-FAM labeled peptide (final concentration 100 nM) was added to start the reaction. The reaction is run at 23° C. for 60 min. DMSO is used in place of compound stock solution as maximum reference and assay buffer is used in place of enzyme as minimum reference. c) add 30 ul IMAP binding reagent (containing 75% IMAP Buffer A, 25% IMAP Buffer B, 1/600 dilution of beads) to stop the reaction, incubated at room temperature for 60 min d) Measure fluorescence polarization, excitation wavelength: 485 nm, emission wavelength 530 nm. 6. Data Process IC50 values were calculated using Graphpad Prism®.

T1 sequence (P11309 whole entry): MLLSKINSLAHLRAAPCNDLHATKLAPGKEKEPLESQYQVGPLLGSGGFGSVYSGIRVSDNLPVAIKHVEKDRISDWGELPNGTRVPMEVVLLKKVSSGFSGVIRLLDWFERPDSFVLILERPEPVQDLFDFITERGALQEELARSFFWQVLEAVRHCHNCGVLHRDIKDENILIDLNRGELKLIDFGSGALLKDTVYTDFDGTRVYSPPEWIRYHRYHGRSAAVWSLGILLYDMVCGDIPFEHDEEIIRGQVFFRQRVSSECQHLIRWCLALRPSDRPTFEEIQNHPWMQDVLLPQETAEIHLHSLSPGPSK

Structure (SMILES) | inhibition at 3 µM [%]
O=C(Nc1cncnc1OC1CCNCC1)c1coc(-c2c(F)cccc2F)n1 [Compound 57, 2-(2,6-difluorophenyl)-N-(4-(piperidin-4-yloxy)pyrimidin-5-yl)oxazole-4-carboxamide] | 20 to 50
O=C(Nc1cncnc1OC1CCNCC1)c1csc(N2CCOCC2)n1 [Compound 60, 2-morpholino-N-(4-(piperidin-4-yloxy)pyrimidin-5-yl)thiazole-4-carboxamide] | 20 to 50
O=C(Nc1cncnc1OC1CCNCC1)c1csc(C2CCNCC2)n1 [Compound 59, 2-(piperidin-4-yl)-N-(4-(piperidin-4-yloxy)pyrimidin-5-yl)thiazole-4-carboxamide] | 20 to 50
CC(C)c1nc(C(=O)Nc2cncnc2OC2CCNCC2)cs1 [Compound 33, 2-isopropyl-N-(4-(piperidin-4-yloxy)pyrimidin-5-yl)thiazole-4-carboxamide] | 20 to 50

Second part, the compound after the results:

inhibition at 3 µM [%] | Structure (SMILES)
20 to 50 | CC(=O)Nc1nc(C(=O)Nc2cncnc2OC2CCNCC2)cs1 [Compound 62, 2-acetamido-N-(4-(piperidin-4-yloxy)pyrimidin-5-yl)thiazole-4-carboxamide]
20 to 50 | O=C(Nc1cncnc1OC1CCNCC1)c1csc(N2CCCCC2)n1 [Compound 61, 2-(piperidin-1-yl)-N-(4-(piperidin-4-yloxy)pyrimidin-5-yl)thiazole-4-carboxamide]
20 to 50 | Nc1sc(-c2c(F)cccc2F)nc1C(=O)Nc1cncnc1S(=O)(=O)CCCO [Compound 63, 5-amino-2-(2,6-difluorophenyl)-N-(4-((3-hydroxypropyl)sulfonyl)pyrimidin-5-yl)thiazole-4-carboxamide]
